Experimental data from ChEMBL document CHEMBL4354883, “Design, Synthesis, and Biological Evaluation of HSP90 Inhibitor-SN38 Conjugates for Targeted Drug Accumulation” (J Med Chem, 2020).
pIC50: −log10 of the molar value. The source made the active and inactive calls. The calls are words filed in the database; no cut-off is given here.

Legend:
[1] = Half life of compound in PBS buffer at pH 7.4 at 50 uM by HPLC analysis; format: physicochemical
[2] = Half life in mouse plasma at 25 uM by HPLC analysis; format: ADME, cell-free
[3] = Half life of compound in PBS buffer at pH 6.0 at 50 uM by HPLC analysis; format: physicochemical
[4] = target: Heat shock protein HSP 90-alpha (Homo sapiens, UniProt P07900); test: biochemical
Description: Inhibition of recombinant human full length HSP90 alpha expressed in Escherichia coli cells after 1 hr by fluorescence polarization assay

[5] = Half life in human plasma at 25 uM by HPLC analysis; format: ADME, cell-free
[6] = tested on: MIA PaCa-2; test: Antiproliferative activity against human MIAPaCa2 cells assessed as reduction in cell viability after 72 hrs by SRB assay; format: functional, cell-based; settings: MIA PaCa-2, 72 h
[7] = Drug uptake in human A549 cells assessed as maximum emission peaks at 430 nm at 5 uM by fluorescence emission spectral analysis; format: ADME, cell-based; settings: a549, 5 µM
[8] = tested on: A549; test: Downregulation of TOP1 expression in human A549 cells at 0.04 uM after 24 hrs by Western blot analysis; format: functional, cell-based
[9] = tested on: HCT-116; test: Downregulation of TOP1 expression in human HCT116 cells at 0.04 uM after 24 hrs by Western blot analysis; format: functional, cell-based
[10] = tested on: A549; test: Induction of cell cycle arrest in human A549 cells at 3 to 10 nM after 24 hrs by RNase A/PI-staining based flow cytometric analysis; format: functional
[11] = tested on: L02; test: Cytotoxicity agains human HL7702 cells assessed as reduction in cell viability after 72 hrs by SRB assay; format: cell-based; settings: L02, 72 h
[12] = Drug uptake in human A549 cells assessed as blue shift in absorption spectrum at 5 uM by UV-visible absorption spectral analysis; format: ADME, cell-based; settings: a549, 5 µM
[13] = tested on: HCT-116; test: Antiproliferative activity against human HCT116 cells assessed as reduction in cell viability after 72 hrs by SRB assay; format: functional, cell-based; settings: HCT-116, 72 h
[14] = tested on: A549; test: Antiproliferative activity against human A549 cells assessed as reduction in cell viability after 72 hrs by SRB assay; format: functional, cell-based; settings: A549, 72 h
[15] = tested on: CAPAN-1; test: Antiproliferative activity against human Capan1 cells assessed as reduction in cell viability after 72 hrs by SRB assay; format: functional, cell-based; settings: CAPAN-1, 72 h
[16] = tested on: CAPAN-1; test: Induction of cell cycle arrest in human Capan1 cells at 3 nM after 24 hrs by RNase A/PI-staining based flow cytometric analysis; format: functional
[17] = tested on: HCT-116; test: Induction of cell cycle arrest in human HCT116 cells at 3 nM after 24 hrs by RNase A/PI-staining based flow cytometric analysis; format: functional
[18] = Drug uptake in human A549 cells assessed as blue fluorescence at 5 uM after 12 hrs by confocal laser scanning microscopic analysis; format: ADME, cell-based; settings: a549, 12 h

half-life at 50 µM [1] [h]	half-life at 25 µM [2] [h]	half-life at 50 µM [3] [h]	pIC50 [4]	half-life at 25 µM [5] [h]	pIC50 [6]	Drug uptake [7]	Drug uptake [12]	pIC50 [13]	pIC50 [14]	Drug uptake [18]	SMILES	inhibition [8]	inhibition [9]	Activity [10]	pIC50 [11]	pIC50 [15]	Activity [16]	Activity [17]
12	17	> 24	5.77	> 24	–	–	–	–	–	–	CCc1c2c(nc3ccc(O)cc13)-c1cc3c(c(=O)n1C2)COC(=O)[C@@]3(CC)OC(=O)CCNC(=O)CNc1cc(-n2nc(C(F)(F)F)c3c2CC(C)(C)CC3=O)ccc1C(N)=O	–	–	–	–	–	–	–
7	10	> 24	5.82	13	–	–	–	–	–	–	CCc1c2c(nc3ccc(O)cc13)-c1cc3c(c(=O)n1C2)COC(=O)[C@@]3(CC)OC(=O)CNC(=O)CNc1cc(-n2nc(C(F)(F)F)c3c2CC(C)(C)CC3=O)ccc1C(N)=O	–	–	–	–	–	–	–
–	–	–	–	–	7.89	Active	Active	8.40	7.96	Active	CCc1c2c(nc3ccc(O)cc13)-c1cc3c(c(=O)n1C2)COC(=O)[C@]3(O)CC [7-ETHYL-10-HYDROXYCAMPTOTHECIN]	Active	Active	Active	7.74	8.10	Active	Active

SMILES	half-life at 50 µM [1] [h]	half-life at 25 µM [2] [h]	half-life at 50 µM [3] [h]	pIC50 [4]	half-life at 25 µM [5] [h]	pIC50 [6]	Drug uptake [7]	Drug uptake [12]	pIC50 [13]	pIC50 [14]	Drug uptake [18]	inhibition [8]	inhibition [9]	Activity [10]	pIC50 [11]	pIC50 [15]	Activity [16]	Activity [17]
CCc1c2c(nc3ccc(OC(=O)N4CCC(NC(=O)CNc5cc(-n6nc(C(F)(F)F)c7c6CC(C)(C)CC7=O)ccc5C(N)=O)CC4)cc13)-c1cc3c(c(=O)n1C2)COC(=O)[C@]3(O)CC	> 24	> 24	> 24	5.90	> 24	–	–	–	–	–	–	–	–	–	–	–	–	–
